For one data set, the system named is Salmonella typhimurium. The data set can be described thus: Induction of mutagenesis in Salmonella Typhimurium TA98 assessed as increase in mutation frequency in presence of liver S9 fraction relative to untreated control. The format is toxicity, organism-based. To be noted: salmonella enterica subsp. enterica serovar typhimurium.
Data set [1] in a line: Aqueous solubility of the compound. It is filed as physicochemical.
A short description of data set [2]: Lipophilicity, log D of the compound. The format is physicochemical. To be noted: octanol/water.

The structures appear in SMILES notation.

Turning to `CC(C)(COc1ccc(-c2ccc(N)cc2)cc1)C(=O)O`, in the data set on Salmonella typhimurium, the “fold change (FC)” value is 24.
Still for that read-out and setting: the value for `CC(C)(COc1ccc(-c2ccc(N)cc2)cn1)C(=O)O` was 2.6.
`CC(Sc1nnc(-c2ccc(NC(=O)c3ccccc3)cc2)n1C)C(=O)O` (racemic): the solubility in data set [1] is above 1000 µg/mL. The same molecule returned a logD in data set [2] of -0.53.

Source of the values: ChEMBL document CHEMBL1938228, “Design and synthesis of potent carboxylic acid DGAT1 inhibitors with high cell permeability” (Bioorg Med Chem Lett, 2012).
